From ChEMBL document CHEMBL2074442, “Recognition of beta-lactam antibiotics by rat peptide transporters, PEPT1 and PEPT2, in LLC-PK1 cells” (Am J Physiol, 1997)

T1: Solute carrier family 15 member 2 (Rattus norvegicus, UniProt Q63424)
T1 sequence (Q63424 whole entry): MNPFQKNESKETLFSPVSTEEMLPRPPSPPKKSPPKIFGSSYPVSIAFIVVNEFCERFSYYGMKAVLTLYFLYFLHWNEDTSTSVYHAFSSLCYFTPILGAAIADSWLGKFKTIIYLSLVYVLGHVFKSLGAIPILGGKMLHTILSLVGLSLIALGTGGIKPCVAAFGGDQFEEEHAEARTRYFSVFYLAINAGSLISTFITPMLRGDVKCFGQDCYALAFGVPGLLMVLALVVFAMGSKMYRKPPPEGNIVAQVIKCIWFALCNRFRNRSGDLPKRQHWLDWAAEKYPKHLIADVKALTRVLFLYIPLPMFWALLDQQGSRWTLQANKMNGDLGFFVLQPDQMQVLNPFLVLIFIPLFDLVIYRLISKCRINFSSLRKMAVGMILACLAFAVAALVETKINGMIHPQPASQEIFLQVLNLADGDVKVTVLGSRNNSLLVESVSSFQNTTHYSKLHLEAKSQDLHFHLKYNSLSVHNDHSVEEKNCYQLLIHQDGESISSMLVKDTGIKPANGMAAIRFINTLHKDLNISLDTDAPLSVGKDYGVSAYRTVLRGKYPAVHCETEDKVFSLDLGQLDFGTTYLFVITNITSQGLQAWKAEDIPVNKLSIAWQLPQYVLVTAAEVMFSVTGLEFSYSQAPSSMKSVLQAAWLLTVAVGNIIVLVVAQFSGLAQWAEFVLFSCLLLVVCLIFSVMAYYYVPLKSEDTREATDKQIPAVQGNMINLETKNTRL

T2: Solute carrier family 15 member 1 (Rattus norvegicus, UniProt P51574)
T2 sequence (P51574 whole entry): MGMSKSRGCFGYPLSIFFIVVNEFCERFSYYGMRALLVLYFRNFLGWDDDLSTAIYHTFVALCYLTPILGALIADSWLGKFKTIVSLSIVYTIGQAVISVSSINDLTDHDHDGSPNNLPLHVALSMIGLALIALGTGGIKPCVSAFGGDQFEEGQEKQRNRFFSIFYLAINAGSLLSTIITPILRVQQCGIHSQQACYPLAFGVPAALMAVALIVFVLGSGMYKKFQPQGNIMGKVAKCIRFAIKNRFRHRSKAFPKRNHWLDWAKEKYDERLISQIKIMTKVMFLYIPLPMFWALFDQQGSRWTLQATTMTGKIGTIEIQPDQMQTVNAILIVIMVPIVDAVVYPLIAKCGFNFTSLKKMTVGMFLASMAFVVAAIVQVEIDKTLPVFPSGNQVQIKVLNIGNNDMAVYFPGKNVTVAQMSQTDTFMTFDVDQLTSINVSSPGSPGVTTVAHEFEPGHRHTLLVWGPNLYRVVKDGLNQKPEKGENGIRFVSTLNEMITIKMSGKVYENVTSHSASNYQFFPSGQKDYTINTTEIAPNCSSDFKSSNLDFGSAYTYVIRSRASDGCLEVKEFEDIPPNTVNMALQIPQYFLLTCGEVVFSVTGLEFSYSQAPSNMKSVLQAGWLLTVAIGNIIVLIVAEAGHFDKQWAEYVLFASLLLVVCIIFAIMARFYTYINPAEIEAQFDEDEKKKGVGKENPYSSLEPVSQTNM

B1: Solute carrier family 15 member 1 (Rattus norvegicus), P51574 (protein)
chain: T2 sequence (P51574 whole entry)
B2: Solute carrier family 15 member 2 (Rattus norvegicus), Q63424 (protein)
chain: T1 sequence (Q63424 whole entry)

Molecular target: T1, Solute carrier family 15 member 2
Assay: TP_TRANSPORTER: inhibition of Gly-Sar uptake in PEPT2-expressing LLC-PK1 cells
Assay type: functional, cell-based

First: CC1(C)S[C@@H]2[C@H](NC(=O)[C@H](N)c3ccc(O)cc3)C(=O)N2[C@H]1C(=O)O [AMOXICILLIN]
Second: CC1(C)S[C@@H]2[C@H](NC(=O)[C@H](N)c3ccccc3)C(=O)N2[C@H]1C(=O)O [AMPICILLIN]
The Ki of the first is 3.7-fold lower: 179 µM for the first, 669 µM for the second. The first binds more tightly here.

Compared with `CC1=C(C(=O)O)N2C(=O)[C@@H](NC(=O)[C@H](N)c3ccc(O)cc3)[C@H]2SC1` [CEFADROXIL], `CC1=C(C(=O)O)N2C(=O)[C@@H](NC(=O)[C@H](N)c3ccccc3)[C@H]2SC1` [CEPHALEXIN ANHYDROUS] is 16-fold higher in Ki: 3 µM for the first, 49 µM for the second. The first binds more tightly here.

Going from `C=CC1=C(C(=O)O)N2C(=O)[C@@H](NC(=O)/C(=N\O)c3csc(N)n3)[C@H]2SC1` [CEFDINIR] to `C=CC1=C(C(=O)O)N2C(=O)[C@@H](NC(=O)/C(=N\OCC(=O)O)c3csc(N)n3)[C@H]2SC1` [CEFIXIME], the Ki falls from 20100 µM to 11900 µM (1.7-fold).

Compared with `Nc1nc(/C(=C/CC(=O)O)C(=O)N[C@@H]2C(=O)N3C(C(=O)O)=CCS[C@H]23)cs1` [CEFTIBUTEN], `CC1=C(C(=O)O)N2C(=O)[C@@H](NC(=O)[C@H](N)C3=CCC=CC3)[C@H]2SC1` [CEPHRADINE] is 29-fold lower in Ki: 1340 µM for the first, 47 µM for the second. The second binds more tightly here.

With `CC1(C)S[C@@H]2[C@H](NC(=O)C3(N)CCCCC3)C(=O)N2[C@H]1C(=O)O` [CYCLACILLIN] the Ki was 27 µM.

Molecular target: T2, Solute carrier family 15 member 1
Assay: TP_TRANSPORTER: inhibition of Gly-Sar uptake in PEPT1-expressing LLC-PK1 cells
Assay type: functional, cell-based

Going from `CC1(C)S[C@@H]2[C@H](NC(=O)[C@H](N)c3ccc(O)cc3)C(=O)N2[C@H]1C(=O)O` [AMOXICILLIN] to `CC1(C)S[C@@H]2[C@H](NC(=O)[C@H](N)c3ccccc3)C(=O)N2[C@H]1C(=O)O` [AMPICILLIN], the Ki rises from 13 mM to 47.8 mM (3.7-fold).

Compared with `CC1=C(C(=O)O)N2C(=O)[C@@H](NC(=O)[C@H](N)c3ccc(O)cc3)[C@H]2SC1` [CEFADROXIL], `CC1=C(C(=O)O)N2C(=O)[C@@H](NC(=O)[C@H](N)c3ccccc3)[C@H]2SC1` [CEPHALEXIN ANHYDROUS] is 2.1-fold higher in Ki: 2.17 mM for the first, 4.5 mM for the second.

Compared with `C=CC1=C(C(=O)O)N2C(=O)[C@@H](NC(=O)/C(=N\O)c3csc(N)n3)[C@H]2SC1` [CEFDINIR], `C=CC1=C(C(=O)O)N2C(=O)[C@@H](NC(=O)/C(=N\OCC(=O)O)c3csc(N)n3)[C@H]2SC1` [CEFIXIME] is 1.7-fold lower in Ki: 11.9 mM for the first, 6.92 mM for the second. The second binds more tightly here.

First: Nc1nc(/C(=C/CC(=O)O)C(=O)N[C@@H]2C(=O)N3C(C(=O)O)=CCS[C@H]23)cs1 [CEFTIBUTEN]
Second: CC1=C(C(=O)O)N2C(=O)[C@@H](NC(=O)[C@H](N)C3=CCC=CC3)[C@H]2SC1 [CEPHRADINE]
The Ki of the first is 14-fold lower: 0.597 mM for the first, 8.54 mM for the second. The first binds more tightly here.

`CC1(C)S[C@@H]2[C@H](NC(=O)C3(N)CCCCC3)C(=O)N2[C@H]1C(=O)O` [CYCLACILLIN] was tested, and the Ki was 0.168 mM.

Substrate: CN(CC(=O)O)C(=O)CN
Assay: TP_TRANSPORTER: uptake in PEPT1-expressing LLC-PK1 cells
Assay type: functional, cell-based

Work on B1 yielded a Km of 1100 µM.

Substrate: CN(CC(=O)O)C(=O)CN
Assay: TP_TRANSPORTER: uptake in PEPT2-expressing LLC-PK1 cells
Assay type: functional, cell-based

In the case of B2, the Km is reported as 110 µM.
